The structures appear in SMILES notation.

Test [1] has as its system Abeta 1-42 produced and secreted by SKNBE2 cells expressing hAPP695. The experiment in a line: Cellular αLisa assay in SKNBE2 cells, Abeta 1-42. In kind it is cell-based, human. The following applies: SKNBE2 cells expressing hAPP695, 18 hours incubation; for IC50: Homo sapiens, SKNBE2, 18 h, read-out: CELLULAR αLISA ASSAY IN SKNBE2 CELLS ABETA 42 PIC50 (converted). A digest of the protocol:
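Human neuroblastoma SKNBE2 cells expressing wild-type hAPP695 treated with compound for 18 h; secreted Abeta total or Abeta 1-42 in medium measured by sandwich αLisa (AbN/25 with Ab4G8 or cAb42/26), read after 1 h. IC50 from least-squares fit of % Controlmin, normalised to untreated and no-antibody controls.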

The next test addresses T1, BACE1 (Homo sapiens, UniProt P56817).
T1 construct: recombinant BACE1 protein in a final concentration of 0.04 μg/ml
The experiment in a line: BACE1 biochemical FRET based assay. The following applies: recombinant BACE1 0.04 μg/ml, 20 μM substrate, 450 min, pH 5.0; for IC50: read-out: BIOCHEMICAL FRET BASED ASSAY pIC50 (converted). A digest of the protocol:
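Recombinant BACE1 (0.04 μg/ml final) incubated 450 min at room temperature with 20 μM Mca/Dnp-labelled 13-mer Swedish APP peptide in 50 mM citrate pH 5.0, 0.05% PEG. Fluorescence (ex 320/em 405 nm) at 450 min minus early baseline Tx; IC50 fitted from % Controlmin versus concentration.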

Test [2] deals with Abeta total produced and secreted by SKNBE2 cells expressing hAPP695. Kind of test: Cellular αLisa assay in SKNBE2 cells, Abeta total. It counts as cell-based, human. The following applies: SKNBE2 cells expressing hAPP695, 18 hours incubation; for IC50: Homo sapiens, SKNBE2, 18 h, read-out: CELLULAR αLISA ASSAY IN SKNBE2 CELLS ABETA TOTAL pIC50 (converted). Here is the method: In two αLisa assays the levels of Abeta total and Abeta 1-42 produced and secreted into the medium of human neuroblastoma SKNBE2 cells are quantified. The assay is based on the human neuroblastoma SKNBE2 expressing the wild type Amyloid Precursor Protein (hAPP695). The compounds are diluted and added to these cells, incubated for 18 hours and then measurements of Abeta 1-42 and Abeta total are taken. Abeta total and Abeta 1-42 are measured by sandwich αLisa. αLisa is a sandwich assay using biotinylated antibody AbN/25 attached to streptavidin coated beads and antibody Ab4G8 or cAb42/26 conjugated acceptor beads for the detection of Abeta total and Abeta 1-42 respectively. In the presence of Abeta total or Abeta 1-42, the beads come into close proximity. The excitation of the donor beads provokes the release of singlet oxygen molecules that trigger a cascade of energy transfer in the acceptor beads, resulting in light emission. Light emission is measured after 1 hour incubation (excitation at […] and emission at 615 nm).
A best-fit curve is fitted by a minimum sum of squares method to the plot of % Controlmin versus compound concentration. From this an IC50 value (inhibitory concentration causing 50% inhibition of activity) can be obtained. • LC=Median of the low control values=Low control: cells preincubated without compound, without biotinylated Ab in the αLisa • HC=Median of the High control values=High Control: cells preincubated without compound
% Effect=100−[(sample−LC)/(HC−LC)*100]
% Control=(sample/HC)*100
% Controlmin=(sample−LC)/(HC−LC)*100

A further test concerns the target T2, BACE2 (Homo sapiens, UniProt Q9Y5Z0).
T2 construct: recombinant BACE2 protein in a final concentration of 0.4 μg/ml
T2 sequence (Q9Y5Z0 63-518): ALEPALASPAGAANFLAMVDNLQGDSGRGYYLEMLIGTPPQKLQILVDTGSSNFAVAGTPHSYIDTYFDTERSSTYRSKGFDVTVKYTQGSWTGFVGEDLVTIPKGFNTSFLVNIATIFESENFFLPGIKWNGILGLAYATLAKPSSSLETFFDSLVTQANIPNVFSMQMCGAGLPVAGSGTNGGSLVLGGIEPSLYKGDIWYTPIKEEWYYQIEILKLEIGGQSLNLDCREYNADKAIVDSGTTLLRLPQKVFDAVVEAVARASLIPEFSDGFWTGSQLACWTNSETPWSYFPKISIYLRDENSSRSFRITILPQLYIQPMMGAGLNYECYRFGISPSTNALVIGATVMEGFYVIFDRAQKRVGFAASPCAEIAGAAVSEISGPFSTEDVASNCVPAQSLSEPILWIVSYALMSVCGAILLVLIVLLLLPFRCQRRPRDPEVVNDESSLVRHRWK
Kind of test: BACE2 biochemical FRET based assay. The following applies: recombinant BACE2 0.4 μg/ml, 10 μM substrate, 450 min, pH 5.0; for IC50: read-out: BIOCHEMICAL FRET BASED ASSAY pIC50 (converted). A digest of the protocol:
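Recombinant enzyme (0.4 μg/ml final) incubated 450 min at room temperature with 10 μM Mca/Dnp-quenched Swedish-mutant APP peptide in 50 mM citrate pH 5.0, 0.05% PEG, no DMSO. Fluorescence (ex 320/em 405 nm) change from T0 to T450 normalised to no-enzyme and enzyme controls; IC50 from least-squares curve fit.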

T1 sequence (P56817 46-501): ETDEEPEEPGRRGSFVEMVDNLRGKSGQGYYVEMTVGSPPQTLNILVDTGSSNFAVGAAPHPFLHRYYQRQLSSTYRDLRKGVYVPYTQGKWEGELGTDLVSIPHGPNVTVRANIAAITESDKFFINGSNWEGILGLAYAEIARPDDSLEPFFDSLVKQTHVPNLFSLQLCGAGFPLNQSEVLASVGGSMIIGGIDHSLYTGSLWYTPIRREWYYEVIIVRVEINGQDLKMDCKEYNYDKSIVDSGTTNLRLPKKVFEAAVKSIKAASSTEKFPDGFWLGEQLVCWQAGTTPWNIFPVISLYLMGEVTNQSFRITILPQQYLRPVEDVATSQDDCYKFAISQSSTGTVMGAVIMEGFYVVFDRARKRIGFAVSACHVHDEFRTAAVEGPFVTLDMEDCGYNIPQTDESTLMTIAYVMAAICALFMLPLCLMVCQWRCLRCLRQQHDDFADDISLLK

Consider `COc1ncc(Br)c2c1C[C@]1(c3ccccc3F)N=C(N)SC[C@@H]1C2` (racemic) [Compound 16], for which the IC50 in test [1] was 138 nM; on BACE1 it was 55 nM; in test [2] it was 138 nM; at BACE2, 77.6 nM.

As to `CCOc1nccc2c1CC1(c3ccc(F)cc3F)N=C(N)SCC1C2` (single isomer, unassigned) [Compound 194], the IC50 was greater than 8910 nM in test [1], greater than 10000 nM at BACE1, 6920 nM in test [2] and greater than 10000 nM on BACE2.

Consider `COc1nccc2c1C[C@]1(c3cc(O)ccc3F)N=C(N)SC[C@@H]1C2` [Compound 36], for which the IC50 in test [1] was 16.6 nM; at BACE1, 138 nM; in test [2], 15.8 nM; at BACE2, 45.7 nM.

Turning to `COc1nccc2c1C[C@@]1(c3cc(O)ccc3F)N=C(N)SC[C@H]1C2` [Compound 183], the IC50 in test [1] is 3090 nM; at BACE1, 4470 nM; in test [2], 3470 nM; on BACE2 it was 6920 nM.

As for `COc1ncc(-c2ccn[nH]2)c2c1C[C@]1(c3ccc(F)cc3F)N=C(N)SC[C@@H]1C2` (racemic) [Compound 29], the IC50 in test [1] was 13.5 nM; on BACE1, 35.5 nM; in test [2], 12.6 nM; at BACE2, 35.5 nM.

Consider `COc1nccc2c1C[C@]1(c3ccccc3)N=C(N)SC[C@@H]1C2` (racemic) [Compound 1], for which the IC50 in test [1] is 69.2 nM; at BACE1, 398 nM; in test [2], 74.1 nM; on BACE2 it was 468 nM.

As to `COc1ncc(-c2cnccc2C)c2c1C[C@]1(c3cc(-c4cncnc4)ccc3F)N=C(N)SC[C@@H]1C2` (mixture of isomers) [Compound 39], the “CELLULAR αLISA ASSAY IN SKNBE2 CELLS ABETA 42 PIC50” value in test [1] is on record as 8.78. Also, the “BIOCHEMICAL FRET BASED ASSAY pIC50” value at BACE1 was 8.3; on BACE2 it was 5.78. For the same compound, the “CELLULAR αLISA ASSAY IN SKNBE2 CELLS ABETA TOTAL pIC50” value in test [2] was 8.71.

With `Cn1ccc2c(c1=O)C[C@]1(c3ccccc3F)N=C(N)SC[C@@H]1C2` (racemic) [Compound 34], the IC50 is 1410 nM in test [1], 6030 nM on BACE1, 1510 nM in test [2] and 6030 nM at BACE2.

For `COc1ncc(-c2cnccc2C)c2c1CC1(c3ccc(Cl)cc3F)N=C(N)SCC1C2` (single isomer, unassigned) [Compound 201], the “CELLULAR αLISA ASSAY IN SKNBE2 CELLS ABETA 42 PIC50” value in test [1] is 5.64. The results for the IC50 at BACE1 and on BACE2 were 6460 nM and greater than 10000 nM, respectively. For the same compound, the “CELLULAR αLISA ASSAY IN SKNBE2 CELLS ABETA TOTAL pIC50” value in test [2] was determined as 5.69.

Consider `COc1ncc(C2CC2)c2c1C[C@]1(c3ccccc3F)N=C(N)SC[C@@H]1C2` (racemic) [Compound 20], for which the IC50 in test [1] was 23.4 nM; at BACE1, 24.5 nM; in test [2], 23.4 nM; on BACE2, 14.1 nM.

Values taken from patent US20200010482A1, “INHIBITORS OF BETA SECRETASE” (Janssen Pharmaceutica NV, priority 2017, published 2020).
